The target in assay [1] is T1, pteridine reductase (TbPTR1) (Trypanosoma brucei, UniProt O76290). The assay can be described thus: crystal structure at […] Å. The assay is classed as biochemical.
For assay [2], the target named is T1, pteridine reductase (TbPTR1). The experiment in a line: crystal structure at […] Å. The assay is classed as biochemical. This is another data set of the same source.
The target is the same in assay [3]. The assay can be described thus: crystal structures. It counts as binding.
Assay [4] has the same target. The experiment in a line: crystal structure at […] Å. It counts as biochemical. The source holds these as a separate data set.
Assay [5] has the same target. The assay can be described thus: crystal structure at […] Å. The assay is classed as biochemical. The source holds these as a separate data set.

pKi: −log10 of the molar value. Where two headings read alike, the source gives them in different places.

The term pKi denotes the negative decadic logarithm of the Ki, by convention in mol/L. Read a high pKi as a small Ki. `Nc1nc(N)nc(NC2CC2)n1` [Cyromazine, N-cyclopropyl-1,3,5-triazine-2,4,6-triamine] had a pKi in assay [1] of less than 4.46.
As to `Nc1nc2[nH]cc(CCc3ccc(C(=O)N[C@@H](CCC(=O)O)C(=O)O)cc3)c2c(=O)[nH]1` [Pemetrexed, 2-{4-[2-(4-amino-2-oxo-3,5,7-triazabicyclo[4.3.0]nona-3,8,10-trien-9-yl)ethyl]benzoyl}aminopentanedioic acid], the pKi in assay [2] is approximately 7.52.
For `NC(=O)c1ccc[n+]([C@@H]2O[C@H](COP(=O)(O)OP(=O)(O)OC[C@H]3O[C@@H](n4cnc5c(N)ncnc54)[C@H](OP(=O)(O)O)[C@@H]3O)[C@@H](O)[C@H]2O)c1` [NADP+], the “crystal structures (complexes with pemetrexed, trimetrexate, PY848)” value in assay [3] is recorded as “Crystals of TbPTR1 in a binary complex with oxidized cofactor (NADP^+) were grown”.
Turning to `COc1ccc(OC)c(CCc2csc3nc(N)nc(N)c23)c1` [PY848, 2,4-diamino-5-[2-(2,5-dimethoxyphenyl)ethyl]thieno[2,3-d]-pyrimidine], the pKi in assay [4] was approximately 7.15.
With `COc1cc(NCc2ccc3nc(N)nc(N)c3c2C)cc(OC)c1OC` [Trimetrexate, 5-methyl-6-[(3,4,5-trimethoxyphenyl)aminomethyl]quinazoline-2,4-diamine], the pKi in assay [5] is approximately 7.15.

(Values after paper PMC3655514 (Acta crystallographica. Section D, Biological …, 2010).)
